Measured values from article PMC8745178, “Methyl 2-Halo-4-Substituted-5-Sulfamoyl-Benzoates as High Affinity and Selective Inhibitors of Carbonic Anhydrase IX” (International Journal of Molecular Sciences, 2021).

Assays:
CAI = CAI (Homo sapiens, UniProt P00915); experiment: fluorescent thermal shift assay (FTSA), CAI; type: binding; settings: 37 °C; for ΔGintr CAI: converted from Kd_intr, independent of pH; for ΔGobs CAI: converted from Kd_obs, pH 7.0, FTSA
CAII = CAII (Homo sapiens, UniProt P00918); experiment: fluorescent thermal shift assay (FTSA), CAII; type: binding; settings: 37 °C; for ΔGintr CAII: converted from Kd_intr, independent of pH; for ΔGobs CAII: converted from Kd_obs, pH 7.0, FTSA
CAIII = CAIII (Homo sapiens, UniProt P07451); experiment: fluorescent thermal shift assay (FTSA), CAIII; type: binding; settings: 37 °C; for ΔGintr CAIII: converted from Kd_intr, independent of pH; for ΔGobs CAIII: converted from Kd_obs, pH 7.0, FTSA
CAVA = CAVA (Homo sapiens, UniProt P35218); experiment: fluorescent thermal shift assay (FTSA), CAVA; type: binding; settings: 37 °C; for ΔGintr CAVA: converted from Kd_intr, independent of pH; for ΔGobs CAVA: converted from Kd_obs, pH 7.0, FTSA
CAVB = CAVB (Homo sapiens, UniProt Q9Y2D0); experiment: fluorescent thermal shift assay (FTSA), CAVB; type: binding; settings: 37 °C; for ΔGintr CAVB: converted from Kd_intr, independent of pH; for ΔGobs CAVB: converted from Kd_obs, pH 7.0, FTSA
CAVI = CAVI (Homo sapiens, UniProt P23280); experiment: fluorescent thermal shift assay (FTSA), CAVI; type: binding; settings: 37 °C; for ΔGintr CAVI: converted from Kd_intr, independent of pH; for ΔGobs CAVI: converted from Kd_obs, pH 7.0, FTSA
CAVII = CAVII (Homo sapiens, UniProt P43166); experiment: fluorescent thermal shift assay (FTSA), CAVII; type: binding; settings: 37 °C; for ΔGintr CAVII: converted from Kd_intr, independent of pH; for ΔGobs CAVII: converted from Kd_obs, pH 7.0, FTSA
CAIX = CAIX (Homo sapiens, UniProt Q16790); experiment: fluorescent thermal shift assay (FTSA), CAIX; type: binding; settings: for ΔGobs CAIX: pH 7
CAXIII = CAXIII (Homo sapiens, UniProt Q8N1Q1); experiment: fluorescent thermal shift assay (FTSA), CAXIII; type: binding; settings: 37 °C; for ΔGintr CAXIII: converted from Kd_intr, independent of pH; for ΔGobs CAXIII: converted from Kd_obs, pH 7.0, FTSA
CAXIV = CAXIV (Homo sapiens, UniProt Q9ULX7); experiment: fluorescent thermal shift assay (FTSA), CAXIV; type: binding; settings: 37 °C; for ΔGintr CAXIV: converted from Kd_intr, independent of pH; for ΔGobs CAXIV: converted from Kd_obs, pH 7.0, FTSA
[1] = determination of pKa of the sulfonamide group by UV-VIS spectra at various pH; type: physicochemical; settings: for f RSO2NH-, fraction of deprotonated sulfonamide: at pH 7.0, calculated from pKa; for pKa: calculated from spectra at various pH, 37 °C
CAIV = CAIV (Homo sapiens, UniProt P22748); experiment: fluorescent thermal shift assay (FTSA), CAIV; type: binding; settings: 37 °C; for ΔGintr CAIV: converted from Kd_intr, independent of pH; for ΔGobs CAIV: converted from Kd_obs, pH 7.0, FTSA
CAXII = CAXII (Homo sapiens, UniProt O43570); experiment: fluorescent thermal shift assay (FTSA), CAXII; type: binding; settings: 37 °C; for ΔGintr CAXII: converted from Kd_intr, independent of pH; for ΔGobs CAXII: converted from Kd_obs, pH 7.0, FTSA
Sequence of CAXII (O43570 25-354): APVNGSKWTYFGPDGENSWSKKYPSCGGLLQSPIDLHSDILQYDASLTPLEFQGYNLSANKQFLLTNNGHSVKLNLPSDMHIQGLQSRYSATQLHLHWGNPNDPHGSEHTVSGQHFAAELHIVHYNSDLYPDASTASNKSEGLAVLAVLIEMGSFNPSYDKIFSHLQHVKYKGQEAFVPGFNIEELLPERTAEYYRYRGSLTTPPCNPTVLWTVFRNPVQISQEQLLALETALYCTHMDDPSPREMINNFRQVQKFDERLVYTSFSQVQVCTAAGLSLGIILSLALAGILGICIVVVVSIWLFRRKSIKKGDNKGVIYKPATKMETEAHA

Sequence of CAXIII (Q8N1Q1 whole entry): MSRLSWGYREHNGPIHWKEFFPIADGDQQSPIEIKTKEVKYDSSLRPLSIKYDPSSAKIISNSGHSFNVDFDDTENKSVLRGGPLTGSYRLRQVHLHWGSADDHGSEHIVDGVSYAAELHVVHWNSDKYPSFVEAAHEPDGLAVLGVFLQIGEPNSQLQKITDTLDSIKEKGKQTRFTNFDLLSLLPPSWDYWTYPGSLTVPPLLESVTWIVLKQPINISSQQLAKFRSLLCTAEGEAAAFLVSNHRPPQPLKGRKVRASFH
Sequence of CAIV (P22748 19-312): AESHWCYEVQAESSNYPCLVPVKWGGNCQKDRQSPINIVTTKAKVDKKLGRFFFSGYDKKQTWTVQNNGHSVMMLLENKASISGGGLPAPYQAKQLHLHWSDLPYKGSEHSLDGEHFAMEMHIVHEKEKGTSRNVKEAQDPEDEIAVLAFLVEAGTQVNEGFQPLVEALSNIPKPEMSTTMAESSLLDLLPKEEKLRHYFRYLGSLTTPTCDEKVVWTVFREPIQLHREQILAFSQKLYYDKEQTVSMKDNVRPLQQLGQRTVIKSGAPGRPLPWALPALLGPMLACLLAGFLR
Sequence of CAIII (P07451 whole entry): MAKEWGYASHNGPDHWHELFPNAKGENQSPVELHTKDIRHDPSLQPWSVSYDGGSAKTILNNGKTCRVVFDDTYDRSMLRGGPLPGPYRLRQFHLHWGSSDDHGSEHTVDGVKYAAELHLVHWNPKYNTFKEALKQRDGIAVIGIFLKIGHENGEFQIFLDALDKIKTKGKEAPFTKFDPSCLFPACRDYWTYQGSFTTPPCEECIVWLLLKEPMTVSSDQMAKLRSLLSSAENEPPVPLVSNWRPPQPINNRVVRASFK
Sequence of CAI (P00915 whole entry): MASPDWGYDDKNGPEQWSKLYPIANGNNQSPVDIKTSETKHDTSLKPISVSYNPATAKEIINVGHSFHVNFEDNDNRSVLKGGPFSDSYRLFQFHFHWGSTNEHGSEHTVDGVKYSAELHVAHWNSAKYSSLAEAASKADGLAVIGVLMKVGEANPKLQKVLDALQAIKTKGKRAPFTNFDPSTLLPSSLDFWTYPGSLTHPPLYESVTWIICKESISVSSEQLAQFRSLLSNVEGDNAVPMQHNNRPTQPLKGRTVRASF
Sequence of CAVII (P43166 whole entry): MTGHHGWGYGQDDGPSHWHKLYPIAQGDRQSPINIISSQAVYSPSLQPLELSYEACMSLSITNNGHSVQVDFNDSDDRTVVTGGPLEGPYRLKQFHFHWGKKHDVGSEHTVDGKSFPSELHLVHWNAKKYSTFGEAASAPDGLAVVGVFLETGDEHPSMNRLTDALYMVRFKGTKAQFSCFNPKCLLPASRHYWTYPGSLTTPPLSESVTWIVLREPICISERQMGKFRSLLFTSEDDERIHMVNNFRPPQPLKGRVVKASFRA
Sequence of CAVB (Q9Y2D0 34-317): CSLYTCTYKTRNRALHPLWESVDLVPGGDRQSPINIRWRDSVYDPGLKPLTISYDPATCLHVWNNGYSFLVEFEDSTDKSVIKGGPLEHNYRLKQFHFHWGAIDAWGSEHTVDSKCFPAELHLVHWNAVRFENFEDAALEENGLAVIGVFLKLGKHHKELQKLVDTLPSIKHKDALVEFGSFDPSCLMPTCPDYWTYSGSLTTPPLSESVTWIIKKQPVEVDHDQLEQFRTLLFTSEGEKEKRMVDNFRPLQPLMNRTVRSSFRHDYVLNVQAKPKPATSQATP
Sequence of CAVA (P35218 39-305): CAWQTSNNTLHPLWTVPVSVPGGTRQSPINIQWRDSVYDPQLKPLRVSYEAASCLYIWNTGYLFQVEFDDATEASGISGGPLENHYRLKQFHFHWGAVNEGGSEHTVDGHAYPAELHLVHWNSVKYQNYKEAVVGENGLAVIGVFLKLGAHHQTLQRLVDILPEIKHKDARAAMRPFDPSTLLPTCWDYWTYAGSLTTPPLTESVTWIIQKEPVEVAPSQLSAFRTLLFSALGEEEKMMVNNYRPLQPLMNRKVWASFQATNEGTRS
Sequence of CAVI (P23280 18-308): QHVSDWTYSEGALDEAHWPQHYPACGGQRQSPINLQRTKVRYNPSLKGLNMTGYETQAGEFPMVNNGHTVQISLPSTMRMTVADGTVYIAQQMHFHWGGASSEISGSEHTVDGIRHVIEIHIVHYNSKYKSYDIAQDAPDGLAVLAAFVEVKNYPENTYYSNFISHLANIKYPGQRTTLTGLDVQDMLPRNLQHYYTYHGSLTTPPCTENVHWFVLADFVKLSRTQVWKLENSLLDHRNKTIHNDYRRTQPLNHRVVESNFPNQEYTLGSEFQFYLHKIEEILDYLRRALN
Sequence of CAXIV (Q9ULX7 16-337): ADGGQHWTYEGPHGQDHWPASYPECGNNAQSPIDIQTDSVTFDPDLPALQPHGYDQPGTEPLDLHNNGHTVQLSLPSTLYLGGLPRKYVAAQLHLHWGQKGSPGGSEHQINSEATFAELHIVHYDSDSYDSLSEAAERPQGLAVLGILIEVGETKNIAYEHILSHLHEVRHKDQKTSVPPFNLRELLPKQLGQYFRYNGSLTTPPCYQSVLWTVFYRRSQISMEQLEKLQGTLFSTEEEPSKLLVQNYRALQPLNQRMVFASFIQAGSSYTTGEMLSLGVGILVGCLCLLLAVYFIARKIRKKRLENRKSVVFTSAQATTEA

Row | Structure (SMILES) | ΔGintr CAI (CAI) | ΔGobs CAI (CAI) | ΔGintr CAII (CAII) | ΔGobs CAII (CAII) | ΔGintr CAIII (CAIII) | ΔGobs CAIII (CAIII) | ΔGintr CAVB (CAVB) | ΔGobs CAVB (CAVB) | ΔGintr CAVI (CAVI) | ΔGobs CAVI (CAVI) | ΔGintr CAVII (CAVII) | ΔGobs CAVII (CAVII) | ΔGintr CAIX (CAIX) | ΔGobs CAIX (CAIX) | ΔGintr CAXIII (CAXIII) | ΔGobs CAXIII (CAXIII) | ΔGintr CAXIV (CAXIV) | ΔGobs CAXIV (CAXIV) | f RSO2NH-, fraction of deprotonated sulfonamide [1] | pKa [1] | further results
1 | COC(=O)c1cc(S(N)(=O)=O)c(SCc2ccccc2)cc1Cl [Compound 3c, Methyl 4-(benzylsulfanyl)-2-chloro-5-sulfamoylbenzoate] | -10.9 kcal/mol | -7.31 kcal/mol | -13.9 kcal/mol | -9.87 kcal/mol | -10.3 kcal/mol | -5.81 kcal/mol | -11.5 kcal/mol | -7.53 kcal/mol | -14.2 kcal/mol | -9.15 kcal/mol | -13.8 kcal/mol | -9.68 kcal/mol | -16.4 kcal/mol | -12.1 kcal/mol | -14.1 kcal/mol | -10.5 kcal/mol | -14.6 kcal/mol | -10.5 kcal/mol | 0.3% | 9.5 | ΔGintr CAVA (CAVA): ≥ -9.06 kcal/mol; ΔGobs CAVA (CAVA): ≥ -5.26 kcal/mol
2 | COC(=O)c1cc(S(N)(=O)=O)c(Br)cc1S(=O)(=O)c1ccccc1 [Compound 10a, Methyl 2-(benzenesulfonyl)-4-bromo-5-sulfamoylbenzoate] | -11.3 kcal/mol | -9.2 kcal/mol | -14.8 kcal/mol | -12.3 kcal/mol | – | – | -14.2 kcal/mol | -11.8 kcal/mol | -13.4 kcal/mol | -9.89 kcal/mol | -15.6 kcal/mol | -13 kcal/mol | -62.0 | -12 kcal/mol | -13.9 kcal/mol | -11.9 kcal/mol | -14.9 kcal/mol | -12.3 kcal/mol | 3.8% | 8.4 | –
3 | COC(=O)c1cc(S(N)(=O)=O)c(Cl)cc1S(=O)(=O)CCc1ccccc1 [Compound 9d, Methyl 4-chloro-2-(2-phenylethylsulfonyl)-5-sulfamoylbenzoate] | -11.3 kcal/mol | -9.2 kcal/mol | -15 kcal/mol | -12.5 kcal/mol | -11.4 kcal/mol | -8.56 kcal/mol | – | -12.7 kcal/mol | -14.2 kcal/mol | -10.8 kcal/mol | -15.5 kcal/mol | -12.9 kcal/mol | – | -12.2 kcal/mol | -14.2 kcal/mol | -12.1 kcal/mol | -15.2 kcal/mol | -12.6 kcal/mol | 3.8% | 8.4 | ΔGintr CAVA (CAVA): -11.8 kcal/mol; ΔGobs CAVA (CAVA): -9.51 kcal/mol
4 | COC(=O)c1cc(S(N)(=O)=O)c(SC2CCCCCCCCCCC2)cc1Cl [Compound 3e, Methyl 2-chloro-4-(cyclododecylsulfanyl)-5-sulfamoylbenzoate] | -10.7 kcal/mol | -7 kcal/mol | -13.3 kcal/mol | -9.08 kcal/mol | ≥ -9.82 kcal/mol | ≥ -5.26 kcal/mol | -10 kcal/mol | -5.93 kcal/mol | -13.3 kcal/mol | -8.08 kcal/mol | -12 kcal/mol | -7.77 kcal/mol | -17.7 kcal/mol | -13.3 kcal/mol | -14.5 kcal/mol | -10.8 kcal/mol | -14.8 kcal/mol | -10.5 kcal/mol | 0.3% | 9.6 | ΔGintr CAIV (CAIV): -14 kcal/mol; ΔGobs CAIV (CAIV): -9.51 kcal/mol; ΔGintr CAVA (CAVA): ≥ -9.2 kcal/mol; ΔGobs CAVA (CAVA): ≥ -5.26 kcal/mol
5 | COC(=O)c1cc(S(N)(=O)=O)c(S(=O)(=O)C2CCCCC2)cc1Cl [Compound 7b, Methyl 2-chloro-4-cyclohexylsulfonyl-5-sulfamoylbenzoate] | -9.7 kcal/mol | -5.66 kcal/mol | -10.6 kcal/mol | -6.09 kcal/mol | -10.5 kcal/mol | -5.66 kcal/mol | -10.1 kcal/mol | -5.66 kcal/mol | -10.7 kcal/mol | -5.28 kcal/mol | ≥ -9.8 kcal/mol | ≥ -5.26 kcal/mol | -11.9 kcal/mol | -7.15 kcal/mol | – | -5.9 kcal/mol | -10.5 kcal/mol | -5.9 kcal/mol | 0.2% | 9.8 | ΔGintr CAVA (CAVA): -9.89 kcal/mol; ΔGobs CAVA (CAVA): -5.66 kcal/mol; ΔGintr CAXII (CAXII): -10.5 kcal/mol; ΔGobs CAXII (CAXII): -5.93 kcal/mol
6 | COC(=O)c1cc(S(N)(=O)=O)c(Br)cc1Br [Compound 2, Methyl 2,4-dibromo-5-sulfamoyl-benzoate] | -9.27 kcal/mol | -6.67 kcal/mol | -13 kcal/mol | -9.99 kcal/mol | ≥ -8.7 kcal/mol | ≥ -5.26 kcal/mol | -13.6 kcal/mol | -10.6 kcal/mol | -13.3 kcal/mol | -9.3 kcal/mol | -13.5 kcal/mol | -10.3 kcal/mol | -13.2 kcal/mol | -9.85 kcal/mol | -12.8 kcal/mol | -10.2 kcal/mol | -13.6 kcal/mol | -10.5 kcal/mol | 1.6% | 8.8 | ΔGintr CAXII (CAXII): -12.3 kcal/mol; ΔGobs CAXII (CAXII): -9.2 kcal/mol
7 | COC(=O)c1cc(S(N)(=O)=O)c(SC2CCCCC2)cc1Br [Compound 4b, Methyl 2-bromo-4-(cyclohexylsulfanyl)-5-sulfamoylbenzoate] | -11.1 kcal/mol | -7.34 kcal/mol | -13.7 kcal/mol | -9.51 kcal/mol | -10.7 kcal/mol | -6.14 kcal/mol | -11.9 kcal/mol | -7.77 kcal/mol | -14.1 kcal/mol | -8.87 kcal/mol | -13.7 kcal/mol | -9.44 kcal/mol | -18.5 kcal/mol | -14.1 kcal/mol | -14.4 kcal/mol | -10.6 kcal/mol | -15.2 kcal/mol | -10.9 kcal/mol | 0.3% | – | ΔGintr CAVA (CAVA): ≥ -9.2 kcal/mol; ΔGobs CAVA (CAVA): ≥ -5.26 kcal/mol
8 | COC(=O)c1cc(S(N)(=O)=O)c(Cl)cc1SCCc1ccccc1 [Compound 5d, Methyl 4-chloro-2-(2-phenylethylsulfanyl)-5-sulfamoylbenzoate] | -11.1 kcal/mol | -7.74 kcal/mol | -14.5 kcal/mol | -10.7 kcal/mol | – | – | -15.6 kcal/mol | -11.9 kcal/mol | -13.4 kcal/mol | -8.63 kcal/mol | – | -10.8 kcal/mol | -15.3 kcal/mol | -11.2 kcal/mol | -14.9 kcal/mol | -11.5 kcal/mol | -14.9 kcal/mol | -11 kcal/mol | 0.5% | 9.3 | ΔGintr CAIV (CAIV): -12.5 kcal/mol; ΔGobs CAIV (CAIV): -8.48 kcal/mol
9 | COC(=O)c1cc(S(N)(=O)=O)c(Cl)cc1S(=O)(=O)C1CCCCC1 [Compound 9b, Methyl 4-chloro-2-cyclohexylsulfonyl-5-sulfamoyl-benzoate] | -12 kcal/mol | -10.2 kcal/mol | -15.3 kcal/mol | -13 kcal/mol | – | – | -15.1 kcal/mol | -13 kcal/mol | -13.7 kcal/mol | -10.5 kcal/mol | -16.2 kcal/mol | -13.8 kcal/mol | – | -12.8 kcal/mol | -14 kcal/mol | -12.1 kcal/mol | -15.4 kcal/mol | -13 kcal/mol | 5.9% | 8.2 | ΔGintr CAIV (CAIV): -12 kcal/mol; ΔGobs CAIV (CAIV): -9.51 kcal/mol; ΔGintr CAVA (CAVA): -10.9 kcal/mol; ΔGobs CAVA (CAVA): -8.94 kcal/mol
